Counter-ions that a name gives are not always drawn.

Assay [1] relates to neurons derived from D3 embryonic stem (ES) cells. Kind of assay: Chemical ischemia-induced neuronal death and neuroprotection, cell culture model. The settings on record: for EC50: Mus musculus, Neuron, read-out: EC50 of neuroprotective effect, chemical ischemia; for neuroprotective effect compared between compounds: each 1 μM, FIG. 3. It is filed as cell-based, mouse. The method, then:
(§1) For all experiments, D3 embryonic stem (ES) cells derived from 129/sv mice [Okabe et al., 1996] were cultivated for 12 days, with passages on days 2, 4, 7 and 9 as described previously [Sommer et al., 2004]. Insult conditions: Cells (24-well plates) were pre-incubated with or without 20 nM EPO (neuroprotective agent, positive control) in fresh medium for 24 hours at 37° C. Cells were rinsed once with low K^+ solution (140 mM NaCl, 4.7 mM KCl, 1.2 mM KH2PO4, 2.5 mM CaCl2, 1.2 mM MgSO4, 11 mM glucose, 15 mM Hepes-NaOH, pH 7.35). Cells (either with or without EPO pre-incubation) were incubated for up to 45 min (37° C.) with either low K^+ solution or with glucose-free low K^+ solution supplemented with 1 mM KCN chemical ischemia solution [Kume et al., 2002, Schrattenholz et al., 2005]. This insult relates to ischemic conditions in stroke. In addition similar cellular insults were established using glutamatergic agonists to induce excitotoxicity (Sommer et al., 2004) and respective neuroprotection related to stroke and epilepsy; and β-amyloid induced toxicity (incubation of neurons with 10 μM β-amyloid1-40 for 10 min, resulting in Ca-influx and neuronal death) and respective rescue related to Alzheimer's disease. Vitality control to assess numbers of surviving neurons was performed in all of these cases by a brief stimulation with a low dose of glutamate (10 μM). Afterwards, cells were washed three times with ice cold phosphate buffered saline (PBS), and then proteins were harvested. Suspended cells were pelleted at 500×G, and lysed into 9M urea 4% CHAPS. The cell lysate was desalted with a NAP-10 column (Amersham Biosciences), preequilibrated with the same buffer, and protein content was determined.
Functional tests by calcium imaging were performed essentially as described [Sommer et al., 2004]. Briefly, cells were loaded with 2 μM of fura-2 AM in DMEM for 45 min at 37° C. in the dark. Measurements of relative changes in [Ca^2+] were made on an inverted epifluorescence microscope (Olympus IX70 S1F2) with a Polychrom IV Monochromator (Xe-lamp, USHIO). Excitation wavelengths (λ1, λ2) and the emission wavelength were 340, 380 and 510 nm, respectively. Acquisition and analysis of data after appropriate stimulation were performed by using MetaFluor software (Universal Imaging Corporation). Image resolution was 168×129 pixels (binning 8×8, pixel size 6.8×6.8 μm). Only cells identified as neurons by morphological criteria and occasional immunostaining (not shown) and those whose calcium levels returned to the resting state after the first stimulation were taken into account. Controls included nominal zero calcium (negative) and 5 μM ionomycin (positive), 10 μM glutamate (positive) and depolarisation (55 mM K+) (positive). Pharmacological agents were applied by a multi-valve, single-output focal drug application device (ALA Scientific) with the perfusion system DAD-12. […] During each stimulation event 20 image pairs were acquired.

Assay [2] has the same test system. Briefly: Excitotoxic paradigm (100 μM NMDA), neuroprotection in cell culture model. It is filed as cell-based. The method, then: as §1
(§2) Functional tests by calcium imaging were performed essentially as described [Sommer et al., 2004]. Briefly, cells were loaded with 2 μM of fura-2 AM in DMEM for 45 min at 37° C. in the dark. Measurements of relative changes in [Ca^2+] were made on an inverted epifluorescence microscope (Olympus IX70 S1F2) with a Polychrom IV Monochromator (Xe-lamp, USHIO). Excitation wavelengths (λ1, λ2) and the emission wavelength were 340, 380 and 510 nm, respectively. Acquisition and analysis of data after appropriate stimulation were performed by using MetaFluor software (Universal Imaging Corporation). Image resolution was 168×129 pixels (binning 8×8, pixel size 6.8×6.8 μm). Only cells identified as neurons by morphological criteria and occasional immunostaining (not shown) and those whose calcium levels returned to the resting state after the first stimulation were taken into account. Controls included nominal zero calcium (negative) and 5 μM ionomycin (positive), 10 μM glutamate (positive) and depolarisation (55 mM K+) (positive). […]

The test system is the same in assay [3]. Kind of assay: β-amyloid-induced neuronal death (10 μM Aβ1-40), rescue in cell culture model. The assay is classed as cell-based. As to the method: as §1, §2
The subject of assay [4] is mitochondrial permeability transition pore (MPTP). Briefly: Functional test of the MPTP by Rhodamine-123 assay. Particulars: for inhibition of release of Rhodamine-123 from mitochondria after opening of the MPTP: 0.5, 1, 10, 20 μM, FIG. 6. The assay is classed as cell-based, mouse. The method, then:
Ant1 is one of the essential components of the MPTP, and thus was tested functionally by a fluorescent assay described by Metzger et al. (Metzger et al. Optical assessment of motoneuron function in a “twenty-four-hour” acute spinal cord slice model from fetal rats. Journal of Neuroscience Methods 141, 2005, 309320). Briefly, cells were incubated with Rhodamine-123 ([…]) at 37° C. for 20 min. Rhodamine-123 was dissolved at 5 mg/ml in ethanol. For measurements of the membrane potential ψ, cells loaded with Rhodamine-123 were excited at 480 nm and emission was monitored at 565 nm. The lipophilic cation Rhodamine-123 accumulates in mitochondria where its fluorescence intensity is quenched at high concentrations (Chen, 1988; Scaduto and Grotyohann, 1999). A depolarizing change of ψ is indicated by an increase in the intensity of fluorescence in response to dequenching of the dye after release from mitochondria (Emaus et al., 1986; Duchen, 1992, 2000). Thus we refer to the relative change in ψ as the percentage change in Rhodamine-123 fluorescence (Schuchmann et al., 2000).

The next assay has as its system G361 cells. Briefly: Autophagy-related assay employing WIPI-staining. The assay is classed as cell-based, human. The settings on record: 0.25, 0.5, 1.0 or 2.0 μM tested; FIG. 7.
The test system of the next assay is β-amyloid plaques. Kind of assay: In vivo assay of β-amyloid plaque formation in a mouse model of Alzheimer's disease (APPPS mice). As to the method:
A quite aggressive model for Alzheimer's disease is a double transgenic mouse line expressing mutated human amyloid precursor protein (APP) and presinilin-1 (PS). Between months 4 and 5 a maximal additional increase of the plaque load of 35-40% can be expected (exponential fit, FIG. 9).
Dutasteride was administered orally every day after animals became 4 months old, for 30 days at a maximum concentration of 2 mg/day.
Technically, images were recorded from whole brain sections (Olympus Fluorescence microscope AX70, Digital camera Casio QV4000; resolution 2240×1680 Pixel, with constant overall intensity in all images) A software-assisted procedure was then used to quantify overall areas of NT12 stain (anti-β-amyloid stain) (plaque area), and NT12 stain volumes in these areas by defining thresholds and relating them to overall proportions of respective slices (plaque volume).

Another assay addresses T1, Kv1.5+Kvβ2.1 (Homo sapiens, UniProt Q13303).
T1 construct: expressed in transfected cells; host or cells: Xenopus oocytes
Kind of assay: K+ channel electrophysiology, inside-out patches of transfected Xenopus oocytes. The assay is classed as cell-based. Particulars: 1 μM Finasteride; Xenopus oocytes with Kv1.5 and Kvβ2.1, inside-out patches, FIG. 5. As to the method:
Xenopus oocytes were transfected with various subunit combinations of potassium channels, like Kv1.5+Kvβ2.1. Subsequently activation curves using inside-out patches (external: 2 mM K^+, internal: 96 mM K^+) were measured, they represent IV-curves using standard internal buffer solution (HK+), which were recorded in the presence and absence of 1 μM Finasteride. Corresponding plots of G/Gmax versus the membrane potential were used to evaluate related effects.

Setting [5] is: Mus musculus, Neuron; read-out: EC50 of neuroprotective effect, excitotoxic paradigm (100 μM NMDA).
[6] abbreviates: Mus musculus, Neuron; read-out: EC50 of neuroprotective effect, β-amyloid toxicity (10 μM Aβ 1-40).
[7] abbreviates: oral, 30 days, months 4 to 5, plaque area or plaque volume, order not stated.

T1 sequence (Q13303 whole entry): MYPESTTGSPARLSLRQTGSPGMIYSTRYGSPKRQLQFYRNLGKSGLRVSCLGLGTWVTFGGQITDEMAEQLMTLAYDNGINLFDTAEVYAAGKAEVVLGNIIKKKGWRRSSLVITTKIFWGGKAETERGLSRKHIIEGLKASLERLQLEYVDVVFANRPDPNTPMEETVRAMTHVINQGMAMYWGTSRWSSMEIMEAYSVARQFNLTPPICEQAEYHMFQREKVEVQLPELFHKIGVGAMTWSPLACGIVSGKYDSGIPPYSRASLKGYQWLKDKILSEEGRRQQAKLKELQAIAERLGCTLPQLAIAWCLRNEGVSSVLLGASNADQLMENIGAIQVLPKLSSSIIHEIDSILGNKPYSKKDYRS
T1 sequence (P22460 whole entry partner): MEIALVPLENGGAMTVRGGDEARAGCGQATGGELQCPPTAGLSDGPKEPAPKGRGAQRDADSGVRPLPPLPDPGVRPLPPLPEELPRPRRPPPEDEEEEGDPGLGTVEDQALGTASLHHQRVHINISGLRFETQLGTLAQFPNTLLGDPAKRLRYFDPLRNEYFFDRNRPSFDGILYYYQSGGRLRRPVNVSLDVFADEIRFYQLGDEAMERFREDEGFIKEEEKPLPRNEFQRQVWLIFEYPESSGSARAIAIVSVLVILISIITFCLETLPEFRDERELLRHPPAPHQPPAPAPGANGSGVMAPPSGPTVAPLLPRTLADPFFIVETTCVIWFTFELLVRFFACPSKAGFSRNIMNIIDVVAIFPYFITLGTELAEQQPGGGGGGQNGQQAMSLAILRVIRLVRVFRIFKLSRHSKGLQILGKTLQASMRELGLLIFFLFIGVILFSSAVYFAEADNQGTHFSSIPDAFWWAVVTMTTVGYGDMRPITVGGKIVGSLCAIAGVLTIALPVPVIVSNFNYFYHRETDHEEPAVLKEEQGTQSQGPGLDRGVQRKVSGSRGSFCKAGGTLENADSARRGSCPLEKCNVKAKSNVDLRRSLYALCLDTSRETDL
Experimental for G361 cells: The presence of autophagy is quantified by a polyclonal hWIPI-1 antiserum, which was generated by immunizing rabbits (Charles River) with two synthetic peptides representing C-terminal regions in hWIPI-1 (363nkendlrpslp373, 407lrgevipehefatgpv422) and used at a dilution of 1:5000 in ECLWestern blotting detections (Amersham), and at 1:250 for indirect immunofluorescent stainings.
For these stainings, cells were fixed in 3.7% paraformaldehyde (15 min, RT) and analysed by confocal microscopy (see below). To visualize endogenous hWIPI-1 in G361 cells consecutive incubations were conducted using C-terminal hWIPI-1 antiserum at 1:250 (30 min, RT) and Alexa 546 or Alexa 488 labelled goat anti-rabbit IgG (Molecular Probes) at 1:500 (30 min, RT) in PBS/0.1% Tween (blocking/permeabilization: PBS/0.1% Tween/1% BSA, 30 min RT; washing: PBS/0.1% Tween). For nuclear staining, TO-PRO-3 (Molecular Probes) was used at 1:1000. Finally, cells were mounted in Vectashield Mounting Medium (Vector Laboratories) and kept in the dark (41C). Confocal laser scanning microscopy was conducted using a LSM510 microscope (Zeiss) and a 63— 1.4 DIC Plan-Apochromat oil-immersion objective. GFP and Alexa 488 were excited at 488 nm with the internal argon-ion laser. Alexa 546 and TO-PRO-3, respectively, were excited at 543 and 633 nm with helium-neon lasers. […]

In general, EC50 refers to the concentration that produces a half-maximal response. As for `CC12CCC3C(CC[C@H]4NC(=O)CCC34C)C1CCC2C(=O)NCCN` (stereo partly drawn) [AEOAA, 4α,6α-dimethyl-2-oxo-hexadecahydro-indeno[5,4-f]quinoline-7-carboxylic-(2-amino-ethyl)-amide hydrochloride], the concentration giving a half-maximal response (EC50) turned out to be 5000 nM in assay [1], 5000 nM in assay [2] (setting [5]) and 4000 nM in assay [3] (setting [6]). In assay [1], the “neuroprotective effect compared between compounds” value is “considerably less active”.
With `C[C@]12C=CC(=O)N[C@@H]1CC[C@@H]1[C@@H]2CC[C@]2(C)[C@@H](C(=O)Nc3cc(C(F)(F)F)ccc3C(F)(F)F)CC[C@@H]12` [Dutasteride, 5α,17β-N-[2,5-bis(trifluoromethyl)phenyl]-3-oxo-4-azaandrost-1-ene-17-carboxamide], in assay [1], the half-maximal effective concentration (EC50) amounted to 300 nM; the “neuroprotective effect compared between compounds” value is “comparable and strongest”. Moreover, in assay [2] (Mus musculus, Neuron, read-out: EC50 of neuroprotective effect, excitotoxic paradigm (100 μM NMDA)), the EC50 worked out at 1500 nM. Besides, the EC50 in assay [3] (Mus musculus, Neuron, read-out: EC50 of neuroprotective effect, β-amyloid toxicity (10 μM Aβ 1-40)) was found to be 100 nM. Further, the “inhibition of release of Rhodamine-123 from mitochondria after opening of the MPTP” value in assay [4] is given as “dose-dependent”. Moreover, the “inhibition of MPTP-formation and opening during ischemic conditions” value in assay [4] (neural derivatives of embryonic stem cells) is “marked and significant inhibition”. Besides, the “enhancement of autophagy in surviving G361 cells” value in the assay with G361 cells is “dose-dependent effect”. Further, in the assay on β-amyloid plaques (setting [7]), the “overall reduction of plaque load versus non-treated controls, first value of 'respectively'” value is 12% and the “overall reduction of plaque load versus non-treated controls, second value of 'respectively'” value is 13%. Besides, the “load of β-amyloid plaques (NT12 stain) in treated versus non-treated group” value in the assay with β-amyloid plaques (oral, daily for 30 days from month 4, max 2 mg/day, cortical slices, FIG. 8) is recorded as “significantly lower”. For the same compound, the “reduction of the plaque load relative to the increase expected between months 4 and 5” value with β-amyloid plaques (related to expected increase of 35-40%) is on record as 30-32.5%.
As for `CC(C)(C)NC(=O)[C@H]1CC[C@H]2[C@@H]3CC[C@H]4NC(=O)C=C[C@]4(C)[C@H]3CC[C@]12C` [Finasteride, 17β-(N-tert-butylcarbamoyl)-4-aza-5α-androst-1-en-3-one], in assay [1] (100 nM-1 μM present during the ischemic insult, FIG. 2), the “protection against neuronal death induced by chemical ischemia” value is “substantial protection”. For the same compound, the “surviving rate of neurons after chemical ischemia” value in assay [1] (1 μM, control cells 4.8±3.4%) was 72.1±4.4%. For the same compound, the values for the 50% effective concentration (EC50) in assay [1], in assay [2] (setting [5]) and in assay [3] (setting [6]) were 300 nM, 2000 nM and 100 nM, respectively. Moreover, the “concentration at which the neuroprotective effect peaks” value in assay [1] (dose response, FIG. 2) was “about 1 μM”. Also, the “neuroprotective effect compared between compounds” value in assay [1] is “comparable and strongest”. On Kv1.5+Kvβ2.1, the “shift of the IV-curve (G/Gmax versus membrane potential)” value is “small shift of the IV-curve towards more negative potential”. In addition, the “inhibition of release of Rhodamine-123 from mitochondria after opening of the MPTP” value in assay [4] is “dose-dependent”. Further, in the assay on G361 cells, the “enhancement of autophagy in surviving G361 cells” value was “dose-dependent effect”.
Turning to `CC12CCC3C(CC[C@H]4NC(=O)CCC34C)C1CCC2C(=O)O` (stereo partly drawn) [COAAA, 4α,6α-di methyl-2-oxo-hexadecahydro-indeno[5,4-f]quinoline-7-carboxylic-acid], the concentration for a half-maximal effect (EC50) in assay [1] amounted to 1000 nM; in assay [2] (setting [5]) it was 5000 nM; in assay [3] (setting [6]), 2000 nM. The “neuroprotective effect compared between compounds” value in assay [1] is recorded as “nearly as efficacious”.

Source of the values: patent US7998970B2, “Use of finasteride, dutasteride and related compounds for the prevention or treatment of neurologically-associated disorders” (ProteoSys AG, priority 2004, dated 2011).
